The source made the active and inactive calls. The calls are words filed in the database; no cut-off is given here.
How the values were obtained:
A549 [1] = test: Antiproliferative activity against human A549 cells measured after 48 hrs by MTT assay; type: functional, cell-based
NCI-H661 [2] = test: Potentiation of cisplatin-induced cytotoxicity against human NCI-H661 cells assessed as combination index at 1:4 ratio of cisplatin to compound measured after 48 hrs by MTT assay; type: functional
NCI-H1299 [3] = test: Potentiation of raloxifene-induced cytotoxicity against human NCI-H1299 cells assessed as fold reduction in raloxifene IC50 at 1:2 ratio of raloxifene to compound measured after 48 hrs by MTT assay relative to raloxifene alone; type: functional
NCI-H1299 [4] = test: Antimigratory activity against human NCI-H1299 cells assessed as reduction in wound closure measured after 24 hrs by wound healing assay; type: functional, cell-based
NCI-H1299 [5] = test: Antiproliferative activity against human NCI-H1299 cells by MTT assay; type: functional, cell-based; conditions: time 24-72 hrs, TDE = time-dependent effect
NCI-H661 [6] = test: Antiproliferative activity against human NCI-H661 cells by MTT assay; type: functional, cell-based; conditions: time 24-72 hrs, TDE = time-dependent effect
NCI-H661 [7] = test: Antiproliferative activity against human NCI-H661 cells measured after 72 hrs by MTT assay; type: functional, cell-based
A549 [8] = test: Potentiation of raloxifene-induced cytotoxicity against human A549 cells assessed as fold reduction in raloxifene IC50 at 1:3 ratio of raloxifene to compound measured after 48 hrs by MTT assay relative to raloxifene alone; type: functional
A549 [9] = test: Inhibition of colony formation in human A549 cells assessed as reduction in size of colonies at 64 to 128 uM measured after 48 hrs by colony formation assay; type: functional, cell-based; conditions: dose 64-128 µM
NCI-H661 [10] = test: Potentiation of raloxifene-induced cytotoxicity against human NCI-H661 cells assessed as fold reduction in raloxifene IC50 at 1:2 ratio of raloxifene to compound measured after 48 hrs by MTT assay relative to raloxifene alone; type: functional
A549 [11] = test: Potentiation of raloxifene-induced cytotoxicity against human A549 cells assessed as combination index at 1:3 ratio of raloxifene to compound measured after 48 hrs by MTT assay; type: functional
A549 [12] = test: Reduction in PDE5 protein expression in human A549 cells at 0.25 to 0.5 IC50 measured after 48 hrs by Western blot analysis; type: functional, cell-based
NCI-H1299 [13] = test: Antiproliferative activity against human NCI-H1299 cells measured after 24 hrs by MTT assay; type: functional, cell-based
A549 [14] = test: Induction of apoptosis in human A549 cells assessed as increase in apoptotic cells at 256 uM measured after 48 hrs by Annexin V-FITC/PI staining based flow cytometry relative to control; type: functional
NCI-H1299 [15] = test: Potentiation of cisplatin-induced cytotoxicity against human NCI-H1299 cells assessed as fold reduction in cisplatin IC50 at 1:4 ratio of cisplatin to compound measured after 48 hrs by MTT assay relative to cisplatin alone; type: functional
A549 [16] = test: Reduction in Bcl-2 gene expression in human A549 cells at 0.1 IC50 measured after 48 hrs by qRT-PCR analysis; type: functional, cell-based
A549 [17] = test: Reduction in PDE5 gene expression in human A549 cells at 0.1 IC50 measured after 48 hrs by qRT-PCR analysis; type: functional, cell-based
A549 [18] = test: Antiproliferative activity against human A549 cells measured after 24 hrs by MTT assay; type: functional, cell-based
NCI-H661 [19] = test: Potentiation of raloxifene-induced cytotoxicity against human NCI-H661 cells assessed as combination index at 1:2 ratio of raloxifene to compound measured after 48 hrs by MTT assay; type: functional
A549 [20] = test: Cell cycle arrest in human A549 cells assessed as increase in cell population at G2 phase at 64 uM measured after 48 hrs by propidium iodide staining based flow cytometry; type: functional
A549 [21] = test: Potentiation of cisplatin-induced cytotoxicity against human A549 cells assessed as combination index at 1:5 ratio of cisplatin to compound measured after 48 hrs by MTT assay; type: functional
A549 [22] = test: Inhibition of colony formation in human A549 cells assessed as reduction in number of colonies at 64 to 128 uM measured after 48 hrs by colony formation assay; type: functional, cell-based; conditions: dose 64-128 µM
NCI-H661 [23] = test: Antiproliferative activity against human NCI-H661 cells measured after 24 hrs by MTT assay; type: functional, cell-based
NCI-H1299 [24] = test: Potentiation of cisplatin-induced cytotoxicity against human NCI-H1299 cells assessed as combination index at 1:4 ratio of cisplatin to compound measured after 48 hrs by MTT assay; type: functional
NCI-H1299 [25] = test: Antiproliferative activity against human NCI-H1299 cells measured after 72 hrs by MTT assay; type: functional, cell-based
A549 [26] = test: Antiproliferative activity against human A549 cells by MTT assay; type: functional, cell-based; conditions: time 24-72 hrs, TDE = time-dependent effect
A549 [27] = test: Potentiation of cisplatin-induced cytotoxicity against human A549 cells assessed as fold reduction in cisplatin IC50 at 1:5 ratio of cisplatin to compound measured after 48 hrs by MTT assay relative to cisplatin alone; type: functional
NCI-H1299 [28] = test: Antiproliferative activity against human NCI-H1299 cells measured after 48 hrs by MTT assay; type: functional, cell-based
NCI-H661 [29] = test: Antiproliferative activity against human NCI-H661 cells measured after 48 hrs by MTT assay; type: functional, cell-based
NCI-H1299 [30] = test: Potentiation of raloxifene-induced cytotoxicity against human NCI-H1299 cells assessed as combination index at 1:2 ratio of raloxifene to compound measured after 48 hrs by MTT assay; type: functional
A549 [31] = test: Antiproliferative activity against human A549 cells measured after 72 hrs by MTT assay; type: functional, cell-based
NCI-H661 [32] = test: Potentiation of cisplatin-induced cytotoxicity against human NCI-H661 cells assessed as fold reduction in cisplatin IC50 at 1:4 ratio of cisplatin to compound measured after 48 hrs by MTT assay relative to cisplatin alone; type: functional

For `CCCOc1ccc(S(=O)(=O)NCCC2CCCN2C)cc1-c1nc2c(CCC)nn(C)c2c(=O)[nH]1` (stereo unspecified) [UDENAFIL], the Activity (A549 [1]) was “Dose-Dependent Effect”, the IC50 (A549 [1]; A549, 48 h) was 128 µM and the CI (NCI-H661 [2]) was 0.83. The “fold change (FC)” value (NCI-H1299 [3]) was 2.4, the Activity (NCI-H1299 [4]) was “Dose-Dependent Effect” and the Activity (NCI-H1299 [5]) was “Tde”. The Activity (NCI-H661 [6]) was “Tde”, the Activity (NCI-H661 [7]) was “Dose-Dependent Effect” and the IC50 (NCI-H661 [7]; NCI-H661, 72 h) was 98.8 µM. For the same compound, the “fold change (FC)” value (A549 [8]) was 1.6, the inhibition (A549 [9]) was “Active” and the “fold change (FC)” value (NCI-H661 [10]) was 2.3. For the same compound, the CI (A549 [11]) was 0.98, the Activity (A549 [12]) was “Dose-Dependent Effect” and the Activity (NCI-H1299 [13]) was “Dose-Dependent Effect”. For the same compound, the IC50 (NCI-H1299 [13]; NCI-H1299, 24 h) was 76.1 µM, the Activity (A549 [14]) was 55.9% and the “fold change (FC)” value (NCI-H1299 [15]) was 2.4. For the same compound, the Activity (A549 [16]) was “Active”, the Activity (A549 [17]) was “Active” and the Activity (A549 [18]) was “Dose-Dependent Effect”. For the same compound, the IC50 (A549 [18]; A549, 24 h) was 150 µM, the CI (NCI-H661 [19]) was 0.8 and the Activity (A549 [20]) was “Active”. For the same compound, the CI (A549 [21]) was 0.95, the inhibition (A549 [22]) was “Active” and the Activity (NCI-H661 [23]) was “Dose-Dependent Effect”. The IC50 (NCI-H661 [23]; NCI-H661, 24 h) was 177 µM, the CI (NCI-H1299 [24]) was 0.82 and the Activity (NCI-H1299 [25]) was “Dose-Dependent Effect”. The IC50 (NCI-H1299 [25]; NCI-H1299, 72 h) was 70.5 µM, the Activity (A549 [26]) was “Tde” and the “fold change (FC)” value (A549 [27]) was 1.7. For the same compound, the Activity (NCI-H1299 [28]) was “Dose-Dependent Effect”, the IC50 (NCI-H1299 [28]; NCI-H1299, 48 h) was 86.3 µM and the Activity (NCI-H661 [29]) was “Dose-Dependent Effect”. The IC50 (NCI-H661 [29]; NCI-H661, 48 h) was 80.4 µM, the CI (NCI-H1299 [30]) was 0.88 and the Activity (A549 [31]) was “Dose-Dependent Effect”. The IC50 (A549 [31]; A549, 72 h) was 82.8 µM and the “fold change (FC)” value (NCI-H661 [32]) was 2.1.
